Measured values taken from ChEMBL document CHEMBL1133941, “Drug design, synthesis, and evaluation of a non-sugar-based selectin antagonist” (Bioorg Med Chem Lett, 2001).

Tests used:
[1] = Cell cytotoxicity of compound was evaluated In vitro in P-selectin mediated cell adhesion assay at a concentration of 30 uM; format: functional
[2] = molecular target: T1, P-selectin (Homo sapiens) (UniProt P16109); test: Inhibitory activity was evaluated In vitro in Selectin P mediated cell adhesion assay at a concentration of 30uM
T1 sequence (whole entry): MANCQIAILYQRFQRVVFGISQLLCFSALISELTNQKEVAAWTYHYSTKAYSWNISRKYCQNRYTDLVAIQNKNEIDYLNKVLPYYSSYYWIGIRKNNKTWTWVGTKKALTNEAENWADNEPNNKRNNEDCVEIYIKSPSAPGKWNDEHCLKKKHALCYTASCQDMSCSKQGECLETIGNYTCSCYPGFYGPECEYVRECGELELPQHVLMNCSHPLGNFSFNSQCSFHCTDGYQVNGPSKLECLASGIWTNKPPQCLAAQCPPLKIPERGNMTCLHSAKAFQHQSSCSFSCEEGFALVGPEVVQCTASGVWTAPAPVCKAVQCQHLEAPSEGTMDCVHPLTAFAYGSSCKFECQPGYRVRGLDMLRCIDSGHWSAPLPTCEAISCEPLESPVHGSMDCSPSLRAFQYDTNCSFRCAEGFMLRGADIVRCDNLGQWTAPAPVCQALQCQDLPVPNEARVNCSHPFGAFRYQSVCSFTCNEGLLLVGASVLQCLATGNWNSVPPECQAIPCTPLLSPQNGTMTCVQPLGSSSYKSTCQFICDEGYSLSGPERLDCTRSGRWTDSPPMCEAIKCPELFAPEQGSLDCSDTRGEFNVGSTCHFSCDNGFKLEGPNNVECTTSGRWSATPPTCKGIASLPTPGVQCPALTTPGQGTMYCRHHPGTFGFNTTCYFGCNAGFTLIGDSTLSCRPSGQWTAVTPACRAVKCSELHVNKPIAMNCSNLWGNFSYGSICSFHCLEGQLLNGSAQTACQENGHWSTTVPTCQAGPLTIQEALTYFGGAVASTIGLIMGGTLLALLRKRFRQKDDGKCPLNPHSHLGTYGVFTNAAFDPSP

[3] = molecular target: T2, P-selectin (Homo sapiens, UniProt P16109); test: Inhibitory activity of compound against Selectin P/sLex binding was determined
T2 sequence (P16109 whole entry): T1 sequence (whole entry)

SMILES	Death [1] [%]	inhibition [2] [%]	IC50 [3] [µM]
CCCCCCCCCCCCCCC(CCCCCCCCCCCCCC)CNC(=O)c1cc(CSC2OC(C)C(O)C(O)C2O)cc(C(=O)NCCC(=O)O)c1 (centres undefined)	2.8	31.3	
CCCCCCCCCCCCCCC(CCCCCCCCCCCCCC)CNC(=O)c1cc(CSC2OC(C)C(O)C(O)C2O)cc(C(=O)O)c1 (centres undefined)	1.9	75.7	10.6
CCCCCCCCCCCCCCC(CCCCCCCCCCCCCC)CNC(=O)c1cc(CSC2OC(C)C(O)C(O)C2O)cc(C(=O)NC(CCC(=O)O)C(=O)NC)c1 (centres undefined)	5.3	-0.9	
CCCCCCCCCCCCCCC(CCCCCCCCCCCCCC)C(=O)N[C@@H](CO[C@@H]1O[C@@H](C)[C@@H](O)[C@H](O)[C@@H]1O)C(=O)N[C@@H](CCC(=O)O)C(=O)NC	1.7	42.8	
